Source: US4576945A, “Hexaalkylmelamine-amino-oxy compounds” (priority 1984, dated 1986)
≈ marks a conversion by molar mass, not a printed value. Read-outs that look alike come from different tables or passages of the source.

Legend:
A-204 rhabdomysarcoma = experiment: Inhibition of colony formation by human tumor cell line A-204 (rhabdomysarcoma), long-term exposure; format: cell-based; details: 9 days
Method: (§1) Cytotoxic activity of O-HMM against in vitro human tumor cells was measured as inhibition of colony formation and the results expressed as a ratio of the number of colonies in test dishes to number of control dishes, times 100 (Table 4).
(§2) Inhibition of colony formation by human tumor
(§3) ^a Percent survival as measured by the number of colonies in test

A-498 renal carcinoma = experiment: Inhibition of colony formation by human tumor cell line A-498 (renal carcinoma), long-term exposure; format: cell-based; details: 9 days
Method: as §1, §2, §3

A-101D melanoma = experiment: Inhibition of colony formation by human tumor cell line A-101D (melanoma), long-term exposure; format: cell-based; details: 9 days
Method: as §1, §2, §3

A-549 lung carcinoma = experiment: Inhibition of colony formation by human tumor cell line A-549 (lung carcinoma), long-term exposure; format: cell-based; details: 9 days
Method: as §1, §2, §3

[1] = Solubility in lipid and aqueous media; format: physicochemical
[2] = Rearrangement of O-HMM to HDT (chemical stability); format: physicochemical; details: for degraded at 4 h / degraded at 24 h / degraded at 26 h / degraded at 20 h: read-out: HDT (formed by rearrangement, determined by NMR); for remaining at 4 h / remaining at 24 h / remaining at 26 h / remaining at 20 h: read-out: HMM--NO (remaining, determined by NMR); for degraded at 24 h / remaining at 24 h: h2o; for degraded at 20 h / remaining at 20 h: 135° C. sealed tube
From the text: Solvent Temp. Time HMM--NO HDT
^a Yields determined by NMR
^b Sealed tube reaction. Solutions degassed with argon and then seale
^d 0.1 equiv. mchlorobenzoic acid
^e 0.1 equiv. pnitrobenzoic acid
^f 0.05 M HOAc/NaOAc pH 5

rats = experiment: Acute toxic effects after intraperitoneal administration in rats; format: in vivo, Male Harlen-Sprague-Dawley rats; details: rat; 20 mg/kg intraperitoneal
Method: Male Harlen-Sprague-Dawley rats, 200-300 g were given 20 mg/kg of O-HMM by intraperitoneal injection (control rats received saline vehicle only) and their urine collected for two consecutive 24 hr. periods.

male BDF1 mice = experiment: Toxicity study (LD50 study) in mice; format: in vivo; details: IP
Method: These effects diminished over a period of about 3-5 hours until the animal appeared normal and resumed activity.

[3] = system: A-549 lung carcinoma, A-101D melanoma, A-498 renal carcinoma and A-204 rhabdomysarcoma; experiment: Comparison of O-HMM with HMM in the human tumor colony formation test systems; format: cell-based; details: vs HMM; all four cell lines
Method: as §1

[4] = h2o/h+ (0.05 m hoac/naoac), pH 5, H2O/H+ (0.05 M HOAc/NaOAc pH 5), 25° C.
[5] = h2o/h+ (0.05 m hoac/naoac), pH 5, H2O/H+ (0.05 M HOAc/NaOAc pH 5), 50° C.
[6] = hccl3/h+ (m-chlorobenzoic acid), HCCl3/H+ (0.1 equiv. m-chlorobenzoic acid), 25° C.
[7] = hccl3/h+ (m-chlorobenzoic acid), HCCl3/H+ (0.1 equiv. m-chlorobenzoic acid), 50° C.
[8] = hccl3/h+ (m-chlorobenzoic acid), HCCl3/H+ (0.1 equiv. m-chlorobenzoic acid)
[9] = hccl3/h+ (p-nitrobenzoic acid), HCCl3/H+ (0.1 equiv. p-nitrobenzoic acid), 50° C.

Question: What does the source list for CN(C)Oc1nc(N(C)C)nc(N(C)C)n1 [O-HMM, 2,4-bis(dimethylamino)-6-[(dimethylamino)oxy]-1,3,5-triazine]?
Answer: inhibition of colony formation (A-204 rhabdomysarcoma; 200 μg/ml): Complete inhibition; viability at 10 µg/mL (A-204 rhabdomysarcoma; Homo sapiens, A204, 216 h, 10 ug/ml, read-out: Percent survival (number of colonies in test dishes to colonies in control dishes times 100)): 99 ± 26%; viability at 20 µg/mL (A-204 rhabdomysarcoma; Homo sapiens, A204, 216 h, 20 ug/ml, read-out: Percent survival (number of colonies in test dishes to colonies in control dishes times 100)): 87 ± 13%; viability at 40 µg/mL (A-204 rhabdomysarcoma; Homo sapiens, A204, 216 h, 40 ug/ml, read-out: Percent survival (number of colonies in test dishes to colonies in control dishes times 100)): 76 ± 17%; viability at 60 µg/mL (A-204 rhabdomysarcoma; Homo sapiens, A204, 216 h, 60 ug/ml, read-out: Percent survival (number of colonies in test dishes to colonies in control dishes times 100)): 48 ± 21%; viability at 80 µg/mL (A-204 rhabdomysarcoma; Homo sapiens, A204, 216 h, 80 ug/ml, read-out: Percent survival (number of colonies in test dishes to colonies in control dishes times 100)): 20 ± 17%; viability at 100 µg/mL (A-204 rhabdomysarcoma; Homo sapiens, A204, 216 h, 100 ug/ml, read-out: Percent survival (number of colonies in test dishes to colonies in control dishes times 100)): 4 ± 4%; viability at 120 µg/mL (A-204 rhabdomysarcoma; Homo sapiens, A204, 216 h, 120 ug/ml, read-out: Percent survival (number of colonies in test dishes to colonies in control dishes times 100)): 1 ± 2%; viability at 200 µg/mL (A-204 rhabdomysarcoma; Homo sapiens, A204, 216 h, 200 ug/ml, read-out: Percent survival (number of colonies in test dishes to colonies in control dishes times 100)): 0%; inhibition of colony formation (A-498 renal carcinoma; 200 μg/ml): Complete inhibition; viability at 10 µg/mL (A-498 renal carcinoma; Homo sapiens, A498, 216 h, 10 ug/ml, read-out: Percent survival (number of colonies in test dishes to colonies in control dishes times 100)): 93 ± 3%; viability at 20 µg/mL (A-498 renal carcinoma; Homo sapiens, A498, 216 h, 20 ug/ml, read-out: Percent survival (number of colonies in test dishes to colonies in control dishes times 100)): 83 ± 7%; viability at 40 µg/mL (A-498 renal carcinoma; Homo sapiens, A498, 216 h, 40 ug/ml, read-out: Percent survival (number of colonies in test dishes to colonies in control dishes times 100)): 67 ± 14%; viability at 60 µg/mL (A-498 renal carcinoma; Homo sapiens, A498, 216 h, 60 ug/ml, read-out: Percent survival (number of colonies in test dishes to colonies in control dishes times 100)): 44 ± 23%; viability at 80 µg/mL (A-498 renal carcinoma; Homo sapiens, A498, 216 h, 80 ug/ml, read-out: Percent survival (number of colonies in test dishes to colonies in control dishes times 100)): 24 ± 18%; viability at 100 µg/mL (A-498 renal carcinoma; Homo sapiens, A498, 216 h, 100 ug/ml, read-out: Percent survival (number of colonies in test dishes to colonies in control dishes times 100)): 14 ± 9%; viability at 120 µg/mL (A-498 renal carcinoma; Homo sapiens, A498, 216 h, 120 ug/ml, read-out: Percent survival (number of colonies in test dishes to colonies in control dishes times 100)): 5 ± 6%; viability at 200 µg/mL (A-498 renal carcinoma; Homo sapiens, A498, 216 h, 200 ug/ml, read-out: Percent survival (number of colonies in test dishes to colonies in control dishes times 100)): 0%; inhibition of colony formation (A-101D melanoma; 200 μg/ml): Complete inhibition; viability at 10 µg/mL (A-101D melanoma; Homo sapiens, A101D, 216 h, 10 ug/ml, read-out: Percent survival (number of colonies in test dishes to colonies in control dishes times 100)): 95 ± 10%; viability at 20 µg/mL (A-101D melanoma; Homo sapiens, A101D, 216 h, 20 ug/ml, read-out: Percent survival (number of colonies in test dishes to colonies in control dishes times 100)): 82 ± 9%; viability at 40 µg/mL (A-101D melanoma; Homo sapiens, A101D, 216 h, 40 ug/ml, read-out: Percent survival (number of colonies in test dishes to colonies in control dishes times 100)): 50 ± 15%; viability at 60 µg/mL (A-101D melanoma; Homo sapiens, A101D, 216 h, 60 ug/ml, read-out: Percent survival (number of colonies in test dishes to colonies in control dishes times 100)): 17 ± 16%; viability at 80 µg/mL (A-101D melanoma; Homo sapiens, A101D, 216 h, 80 ug/ml, read-out: Percent survival (number of colonies in test dishes to colonies in control dishes times 100)): 1 ± 1%; viability at 100 µg/mL (A-101D melanoma; Homo sapiens, A101D, 216 h, 100 ug/ml, read-out: Percent survival (number of colonies in test dishes to colonies in control dishes times 100)): 0%; viability at 120 µg/mL (A-101D melanoma; Homo sapiens, A101D, 216 h, 120 ug/ml, read-out: Percent survival (number of colonies in test dishes to colonies in control dishes times 100)): 0%; viability at 200 µg/mL (A-101D melanoma; Homo sapiens, A101D, 216 h, 200 ug/ml, read-out: Percent survival (number of colonies in test dishes to colonies in control dishes times 100)): 0%; inhibition of colony formation (A-549 lung carcinoma; 200 μg/ml): Complete inhibition; viability at 10 µg/mL (A-549 lung carcinoma; Homo sapiens, A549, 216 h, 10 ug/ml, read-out: Percent survival (number of colonies in test dishes to colonies in control dishes times 100)): 91 ± 6%; viability at 20 µg/mL (A-549 lung carcinoma; Homo sapiens, A549, 216 h, 20 ug/ml, read-out: Percent survival (number of colonies in test dishes to colonies in control dishes times 100)): 94 ± 4%; viability at 40 µg/mL (A-549 lung carcinoma; Homo sapiens, A549, 216 h, 40 ug/ml, read-out: Percent survival (number of colonies in test dishes to colonies in control dishes times 100)): 69 ± 11%; viability at 60 µg/mL (A-549 lung carcinoma; Homo sapiens, A549, 216 h, 60 ug/ml, read-out: Percent survival (number of colonies in test dishes to colonies in control dishes times 100)): 9 ± 14%; viability at 80 µg/mL (A-549 lung carcinoma; Homo sapiens, A549, 216 h, 80 ug/ml, read-out: Percent survival (number of colonies in test dishes to colonies in control dishes times 100)): 0%; viability at 100 µg/mL (A-549 lung carcinoma; Homo sapiens, A549, 216 h, 100 ug/ml, read-out: Percent survival (number of colonies in test dishes to colonies in control dishes times 100)): 0%; viability at 120 µg/mL (A-549 lung carcinoma; Homo sapiens, A549, 216 h, 120 ug/ml, read-out: Percent survival (number of colonies in test dishes to colonies in control dishes times 100)): 0%; viability at 200 µg/mL (A-549 lung carcinoma; Homo sapiens, A549, 216 h, 200 ug/ml, read-out: Percent survival (number of colonies in test dishes to colonies in control dishes times 100)): 0%; solubility ([1]; pentane, organic solvent or mixture, read-out: solubility in lipid medium (pentane)): 29 mg/mL (≈ 128 mM); solubility ([1]; water, read-out: solubility in aqueous medium (water)): 19 mg/mL (≈ 84 mM); degraded at 4 h ([2]; h2o/h+ (0.01 m hcl), 25° C.): 100%; remaining at 4 h ([2]; h2o/h+ (0.01 m hcl), 25° C.): 0%; degraded at 4 h [2, 4]: 79%; remaining at 4 h [2, 4]: 21%; degraded at 4 h [2, 5]: 100%; remaining at 4 h [2, 5]: 0%; degraded at 24 h ([2]; 25° C.): 0%; remaining at 24 h ([2]; 25° C.): 100%; degraded at 24 h ([2]; 50° C.): 9%; remaining at 24 h ([2]; 50° C.): 91%; degraded at 26 h ([2]; hccl3, HCCl3, 25° C.): 3%; remaining at 26 h ([2]; hccl3, HCCl3, 25° C.): 97%; degraded at 26 h ([2]; hccl3, HCCl3, 50° C.): 37%; remaining at 26 h ([2]; hccl3, HCCl3, 50° C.): 63%; degraded at 20 h ([2]; hccl3, HCCl3): 100%; remaining at 20 h ([2]; hccl3, HCCl3): 0%; degraded at 26 h [2, 6]: 66%; remaining at 26 h [2, 6]: 34%; degraded at 26 h [2, 7]: 97%; remaining at 26 h [2, 7]: 3%; degraded at 20 h [2, 8]: 100%; remaining at 20 h [2, 8]: 0%; degraded at 26 h [2, 9]: 100%; remaining at 26 h [2, 9]: 0%; degraded at 20 h ([2]; pentane): 100%; remaining at 20 h ([2]; pentane): 0%; acute toxic effects (rats): No acute toxic effects were observed; onset of changes in the mouse's behavior after injection (male BDF1 mice): < 1 min; recovery of the fourth mouse (male BDF1 mice; 1000 mg/kg): recovering completely; time of recovery (dose dependence) (male BDF1 mice; mouse): dose-dependent time of recovery; time until effects diminished and animal appeared normal (male BDF1 mice; mouse): 3 to 5 h; time to death (male BDF1 mice; mouse, 1000 mg/kg): ≤ 3 min; deaths (male BDF1 mice; mouse, 1000 mg/kg, 4 mice): 3 of the 4; long-term effects (weight loss, hair loss, death rate vs control animals) (male BDF1 mice; mouse, 60- and 120-day observation): no long-term effects; recovery of the remaining mice in the other groups (male BDF1 mice; mouse, 500, 250, 100, 50 and 25 mg/kg): recovered completely in a few hours; toxic phenomenon (flaccid paralysis) (male BDF1 mice; mouse, 1000-25 mg/kg): dose dependent toxic phenomenon showing a decreasing degree of a flaccid paralysis with decreasing dose; absorption (male BDF1 mice; mouse, inferred from rapid onset of toxic effect): very rapid absorption; activity compared with HMM in the human tumor colony formation test systems [3]: consistently greater activity than HMM
